Experimental data: ChEMBL document CHEMBL1158839, “Dichotomins J and K, vasodilator cyclic peptides from Stellaria dichotoma” (J Nat Prod, 2005)
Active and inactive are the calls of the source. The calls are words filed in the database; no cut-off is given here.

Experiments:
Aorta [1] = assay: Vasorelaxant activity against norepinephrine-induced contraction in Wistar rat thoracic aorta at 100 uM; type: functional, tissue-based
Aorta [2] = assay: Vasorelaxant activity against norepinephrine-induced contraction in Wistar rat thoracic aorta at 30 uM; type: functional, tissue-based

`CC[C@@H](C)[C@@H]1NC(=O)[C@H](C(C)C)NC(=O)[C@H](Cc2ccc(O)cc2)NC(=O)[C@H](Cc2ccc(O)cc2)NC(=O)[C@@H]2CCCN2C(=O)[C@H]([C@H](C)CC)NC(=O)[C@H](C(C)C)NC(=O)[C@H](C)NC(=O)[C@@H]2CCCN2C1=O` was tested, and the Activity (Aorta [1]) was “Active”.
With `CC[C@@H](C)[C@@H]1NC(=O)CNC(=O)[C@H](C)NC(=O)[C@H](Cc2ccc(O)cc2)NC(=O)[C@H](CC(C)C)NC(=O)[C@H](Cc2ccccc2)NC1=O` the Activity (Aorta [2]) was “Active”.
